{"source": "patent US20040022744A1", "about": "“Method of treating dental caries and remineralizing lesions” (priority 2001, published 2004)", "key": {"[1]": {"system": "microflora from primary root carious lesions (PRCL)", "experiment": "Ozone effect on microflora from primary root caries ex-vivo", "type": "cell-based", "conditions": "for Mean ± SE of Total cfu (Log10): after 10 seconds of ozone treatment", "excerpt": "Primary root carious lesions (PRCL) are a major clinical problem. The aim of this study was to establish if ozone could achieve effective microbial killing in PRCL. An ozone producing generator (Purezone Ltd., Ipswich, U.K.) was used in this ex-vivo study assessing the use of ozone on PRCL. In this study, soft PRCL requiring restoration were used as these are the most severe type of lesion found in humans. 20 freshly extracted teeth with PRCL requiring restoration were used. After plaque removal using a hand held standard fine nylon fiber sterile toothbrush with sterile water as a lubricant to cleanse the surface, each tooth was then isolated using sterile cotton wool rolls and dried using a dry sterile cotton wool roll. […] Each sample was weighed and immediately placed in 1 ml of Fastidious Anaerobe Broth (FAB). To each 1 ml of FAB containing a biopsy o carious or ozone treated carious dentine, sterile glass beads were added. They were vortexed for 30 seconds to facilitate the extraction of any micro-organisms from the carious dentine and disperse any aggregates. After decimal dilution with FAB, […] of these was spread on Fastidious Anaerobe Agar (LabM, Bury, Lancs., U.K.) supplemented with 5% (V/V) horse blood in an anaerobic chamber at 37° C. for four days. The mean±SE number of each colony type was counted and calculated.\nThe procedure of Example 2 was repeated except that ozonized water was applied to the lesion for 20 seconds.\nThe aims of these studies were to evaluate the efficiency of ozone on primary root caries and associated micro-organisms (Streptococcus sobrinus; TH 21 Streptococcus mutans; NCTC 10449). In study 1, 40 soft primary root carious lesions (PRCLs) from freshly extracted teeth were used and randomly divided into two groups to test the exposure to ozone for either 10 or 20 seconds. There was a significant (p<0.001) difference (Mean±SE) between the control samples for either 10 seconds (log10 5.91±0.15) or 20 seconds (log10 6.18±0.21) and ozone treated samples for either 10 seconds (log10 3.57±0.37) or 20 seconds (log10 3.77±0.42). In study 2, 40 sterile saliva coated glass beads were put into bijoux bottles with 3 mls of Todd Hewitt broth for control and test groups. S. sobrinus and S. mutans were inoculated and incubated anaerobically overnight. Each glass bead was washed with 2 mls of PBS. Immediately, 10 seconds of ozone was applied to the glass beads in the test groups. Subsequently, each glass bead in the test and control groups was placed in 3 mls of Todd Hewitt broth with six more sterile glass beads and were vortexed for 30 seconds. […] The number of each colony type was counted and calculated. […]"}, "[2]": {"system": "Streptococcus sobrinus; TH 21", "experiment": "Ozone on micro-organisms on saliva coated glass beads", "type": "cell-based", "conditions": "S. sobrinus on saliva coated glass beads, 10 seconds of ozone", "excerpt": "The aims of these studies were to evaluate the efficiency of ozone on primary root caries and associated micro-organisms (Streptococcus sobrinus; TH 21 Streptococcus mutans; NCTC 10449). In study 1, 40 soft primary root carious lesions (PRCLs) from freshly extracted teeth were used and randomly divided into two groups to test the exposure to ozone for either 10 or 20 seconds. There was a significant (p<0.001) difference (Mean±SE) between the control samples for either 10 seconds (log10 5.91±0.15) or 20 seconds (log10 6.18±0.21) and ozone treated samples for either 10 seconds (log10 3.57±0.37) or 20 seconds (log10 3.77±0.42). In study 2, 40 sterile saliva coated glass beads were put into bijoux bottles with 3 mls of Todd Hewitt broth for control and test groups. S. sobrinus and S. mutans were inoculated and incubated anaerobically overnight. Each glass bead was washed with 2 mls of PBS. Immediately, 10 seconds of ozone was applied to the glass beads in the test groups. Subsequently, each glass bead in the test and control groups was placed in 3 mls of Todd Hewitt broth with six more sterile glass beads and were vortexed for 30 seconds. After decimal dilutions, […] were spread on blood agar plates supplemented with 5% (V/V) horse blood and placed in an anaerobic chamber at 37° C. for two days. The number of each colony type was counted and calculated. […]"}}, "data": [{"molecule": "O=[O+][O-]", "note": "[ozone]", "values": [{"measurement": "percentage of micro-organisms killed", "setting": "[1]; 10 seconds of ozone, PRCL ex vivo", "value": "more than 99%"}, {"measurement": "Mean ± SE of Total cfu (Log10)", "setting": "[1]; soft PRCL of extracted teeth", "value": "3.57±0.37", "unit": "Log10"}, {"measurement": "Mean ± SE of Total cfu (Log10)", "setting": "[1]; soft PRCL of extracted teeth, listed as Ozone", "value": "3.57 ± 0.37", "unit": "Log10"}, {"measurement": "Total cfu (log10), mean±SE", "setting": "[1]; after 20 seconds of ozone treatment, soft PRCL of extracted teeth", "value": "3.77±0.42", "unit": "log10"}, {"measurement": "colony count (log10), Mean ±SE", "setting": "[2]", "value": "1.09±0.36", "unit": "log10"}]}]}
